The values below come from US8912223B2, “Compositions and processes for preparing 5-amino or substituted amino 1,2,3-triazoles and triazoles orotate formulations” (priority 2013, dated 2014).

Data set [1] relates to Dunning R-3227-AT-1 prostate cancer model. The following applies: rats; compared with equivalent dose of L651582; U.S. Pat. No. 5,912,346; cited from earlier work.
Data set [2] is described as follows: Gastric lesions and toxicity in rodents. The following applies: in vivo. The source says: This may be related to the absence of use of toxic ingredients such as sodium azide or potassium azide.
Data set [3] concerns HT29 human colon tumor xenografts. Nature of the data set: Anticancer activity in s.c.-implanted HT29 human colon tumor xenografts. It is filed as in vivo, mice. The following applies: CTO 343 mg/kg/day, days 13-26; measured at 41 days; control 1436 mm^3; p=0.0050 vs control. As to the method: The effect of CTO M.W. of 580.8 and CAI M.W. of 424.6+Orotic Acid M.W. of 156.1, was studied in s.c.-implanted HT29 human colon tumor xenografts in male, athymic NCr-n u/nu mice. 6 week old mice were implanted with HT29 fragments and 13 days later were sorted in […] groups of ten. For the next 14 days (13-26 days), Group 1 control (C) received the vehicle; Group 2=343 mg/kg/dose; Group 3=240 mg/kg/day CAI+103 mg/kg/day orotic acid. At 41 days, the mean tumor volume (mm^3) was measured as shown below: • Group 1 (Control)=1436 mm^3 • Group 2 (CTO343 mg/kg/day)=864 mm^3 (p=0.0050, Gr2 vs Gr 1) • Group 3 (CAI […]+Orotic Acid 103 mg/kg/day)=1268 mm^3 (p=0.2706,Gr 3 vs Gr 1). […] However, CAI+Orotic acid formulation did show some tumor inhibition.

Data set [4] can be described thus: CTO concentration (as CAI) in brain tissue after oral dosing. Type of data set: in vivo, mice. The following applies: mouse, eight hours after treatment, read-out: CAI levels in brain tissue. The method, then: CTO was given orally (in PEG400) to six week old mice sorted in two Groups of 6. Two doses were administered-Group 1=513 mg/kg; Group 2=342 mg/kg. Eight hours after treatment with CTO, the mice were euthanized for measurement of CTO concentration (as CAI) in brain tissue.

The nature of data set [5]: Bioavailability of CTO given orally as solid in capsule or as liquid in PEG-400; CAI in plasma by HPLC/MS. Type of data set: in vivo, dogs. The following applies: for Cmax / half-life: po; for Cmax: 685 mg/kg; for concentration at 1 h: measured as CAI, read-out: Plasma concentration after 1 hr. As to the method: The bioavailability of CTO (base:acid, 0.7:1.3) was determined by administering a single dose 685 mg/kg by capsule (Group 1) or by oral gavage in PEG400 (Group 2). Two dogs (1F/1M) were used in each group. Blood samples were collected at 0, 1, 2, 4, 8, 12, 24, 48, 72, and 92 hours. CAI was measured by HPLC/MS.

The format of data set [6] is in vivo. The following applies: dogs, PO, 175, 350, 1025 mg/kg/day, after 28 days.

Like-named read-outs stand apart in the source and are kept apart here.

As for `NC(=O)c1nnn(Cc2cc(Cl)c(C(=O)c3ccc(Cl)cc3)c(Cl)c2)c1N.O=C(O)c1cc(=O)[nH]c(=O)[nH]1` [L651582 Orotate], in data set [1], the antitumor activity result is listed as “improved antitumor activity”.
On to `NC(=O)c1nnn(Cc2cc(Cl)c(C(=O)c3ccc(Cl)cc3)c(Cl)c2)c1N` [CAI, 5-Amino-1-(4-(4-chlorobenzoyl)-3,5-dichlorobenzyl)-1,2,3-triazole-4-carboxamide], for which the “gastric lesions and toxicity” value in data set [2] was “less gastric lesions and toxicity”.
The term bioavailability denotes dose-corrected exposure relative to a reference, in per cent. For orientation: Cmax means the peak of the concentration-time curve. By half-life is commonly meant the time needed for the level to fall by half in the phase considered. A lower half-life goes with fast loss. In data set [3], `NC(=O)c1nnn(Cc2cc(Cl)c(C(=O)c3ccc(Cl)cc3)c(Cl)c2)c1N` [CTO, 5-Amino-1-(4-(4-chlorobenzoyl)-3,5-dichlorobenzyl)-1,2,3-triazole-4-carboxamide, compound with orotic acid] showed a mean tumor volume of 864 mm^3. Further, the concentration at 8 h was found to be 11000 ± 1700 ng/g in data set [4] (CTO 342 mg/kg orally in PEG400, mice) and 15200 ± 2370 ng/g in data set [4] (CTO 513 mg/kg orally in PEG400, mice). For the same compound, the bioavailability in data set [5] (both sexes, dog, plasma, oral gavage in PEG400, single dose 685 mg/kg, dogs, read-out: Bioavailability relative to Group 1 (capsule, 100%)) amounted to 81.8%. Moreover, the AUC in data set [5] (capsule, single dose 685 mg/kg, female dog) came to 277 µg/mL; in data set [5] (capsule, single dose 685 mg/kg, male dog), 326 µg/mL. The maximum concentration (Cmax) came out at 7950 ng/mL in data set [5] (female, dog, plasma, capsule, single dose 685 mg/kg, female dog); 5350 ng/mL in data set [5] (female, dog, plasma, oral gavage in PEG400, single dose 685 mg/kg, female dog); 5800 ng/mL in data set [5] (male, dog, plasma, capsule, single dose 685 mg/kg, male dog); 6630 ng/mL in data set [5] (male, dog, plasma, oral gavage in PEG400, single dose 685 mg/kg, male dog). Also, the concentration at 1 h was 174 ng/mL in data set [5] (plasma, oral, capsule, single dose 685 mg/kg, female dog); 155 ng/mL in data set [5] (plasma, oral, capsule, single dose 685 mg/kg, male dog); 570 ng/mL in data set [5] (plasma, oral gavage in PEG400, single dose 685 mg/kg, female dog); 511 ng/mL in data set [5] (plasma, oral gavage in PEG400, single dose 685 mg/kg, male dog). In addition, the half-life was 22.7 h in data set [5] (plasma, capsule, single dose 685 mg/kg, female dog) and 18 h in data set [5] (plasma, capsule, single dose 685 mg/kg, male dog). Besides, the deaths entry in data set [6] is “no deaths occurred”.
